pEC50: −log10 of the molar value.
Each molecule was assayed against T1, Androgen receptor (Homo sapiens, UniProt P10275) (assay: Antagonist activity at androgen receptor in human C4-2-PSA-rl cells incubated for 24 hrs in presence of androgen R1881 by dual-glo luciferase reporter gene assay).
T1 sequence (P10275 whole entry): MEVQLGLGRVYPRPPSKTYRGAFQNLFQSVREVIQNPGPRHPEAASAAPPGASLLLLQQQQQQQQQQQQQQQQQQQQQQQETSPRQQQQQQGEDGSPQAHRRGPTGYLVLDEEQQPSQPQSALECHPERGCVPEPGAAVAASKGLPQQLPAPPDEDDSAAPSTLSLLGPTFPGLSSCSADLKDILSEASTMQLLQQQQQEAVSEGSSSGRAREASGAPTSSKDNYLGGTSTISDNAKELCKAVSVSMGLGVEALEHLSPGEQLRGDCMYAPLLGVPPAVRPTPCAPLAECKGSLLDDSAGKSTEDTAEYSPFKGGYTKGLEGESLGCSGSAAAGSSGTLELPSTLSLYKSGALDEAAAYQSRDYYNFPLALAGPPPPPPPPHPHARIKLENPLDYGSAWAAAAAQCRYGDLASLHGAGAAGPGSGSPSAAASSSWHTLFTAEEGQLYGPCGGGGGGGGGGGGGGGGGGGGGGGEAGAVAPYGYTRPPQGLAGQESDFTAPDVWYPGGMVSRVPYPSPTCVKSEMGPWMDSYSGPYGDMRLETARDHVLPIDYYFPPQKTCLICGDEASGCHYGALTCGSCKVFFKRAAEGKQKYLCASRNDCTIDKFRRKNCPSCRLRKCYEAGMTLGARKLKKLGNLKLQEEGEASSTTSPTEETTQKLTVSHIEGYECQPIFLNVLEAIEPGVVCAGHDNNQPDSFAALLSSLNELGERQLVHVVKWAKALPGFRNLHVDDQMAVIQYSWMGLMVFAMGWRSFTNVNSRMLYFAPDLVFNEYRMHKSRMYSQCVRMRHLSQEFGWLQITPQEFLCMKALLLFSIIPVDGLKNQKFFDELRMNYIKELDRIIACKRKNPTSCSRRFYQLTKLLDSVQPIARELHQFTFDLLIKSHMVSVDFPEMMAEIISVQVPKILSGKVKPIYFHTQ
Assay type: cell-based
Work on `Cc1noc(C)c1CSCC(=O)N1CCN(c2ccccc2)CC1` yielded a pEC50 of under 4.60.
Work on `Cc1ccccc1N1CCN(C(=O)CN(C)Cc2ccccc2)CC1` yielded a pEC50 of under 4.60.
`Cc1ccccc1N1CCN(C(=O)C[S+]([O-])Cc2c(C)noc2C)CC1` (stereo not given) was tested, and the pEC50 was under 4.60.
In the case of `Cc1ccccc1N1CCN(C(=O)CSc2ccccc2)CC1`, the pEC50 was under 4.60.
`Cc1ccc(N2CCN(C(=O)CSCc3c(C)noc3C)CC2)cc1` gave a pEC50 of under 4.60.
`Cc1ccccc1N1CCN(C(=O)COCc2c(C)noc2C)CC1` showed a pEC50 of under 4.60.
Work on `Cc1cccc(N2CCN(C(=O)CSCc3c(C)noc3C)CC2)c1` yielded a pEC50 of under 4.60.
`COc1ccccc1N1CCN(C(=O)CSCc2c(C)noc2C)CC1` showed a pEC50 of under 4.60.
`Cc1ccccc1N1CCN(C(=O)/C=C/c2ccccc2)CC1` gave a pEC50 of under 4.60.
For `Cc1ccccc1N1CCN(C(=O)NCSCc2c(C)noc2C)CC1`, the pEC50 was under 4.60.
Work on `Cc1ccccc1N1CCC(OC(=O)NCSCc2c(C)noc2C)CC1` yielded a pEC50 of under 4.60.
In the case of `Cc1ccc(Cl)cc1N1CCN(C(=O)[C@H]2C[C@H]2c2ccc(F)cc2)CC1`, the pEC50 was 5.77.
Work on `Cc1ccc(Cl)cc1N1CCN(C(=O)[C@@H]2C[C@@H]2c2ccc(F)cc2)CC1` yielded a pEC50 of 4.82.
Work on `Cc1ccc(Cl)cc1N1CCN(C(=O)C2CC2c2ccc(F)cc2)CC1` (racemic) yielded a pEC50 of 5.57.
Molecule `Cc1ccccc1N1CCN(C(=O)[C@H]2C[C@@H]2c2ccccc2)CC1` (relative stereo) has a pEC50 of under 4.60.

— ChEMBL document CHEMBL4431378, “Small Molecule Antagonists of the Nuclear Androgen Receptor for the Treatment of Castration-Resistant Prostate Cancer” (ACS Med Chem Lett, 2016)
